Laboratory results from PMC7023064, “Design, Synthesis, and Evaluation of Novel 2-Methoxyestradiol Derivatives as Apoptotic Inducers through an Intrinsic Apoptosis Pathway” (Biomolecules, 2020).

Experiments:
MCF-7 cells [1] = experiment: Cell cycle assay (PI staining, flow cytometry); assay type: cell-based, human; conditions: 72 h
Experimental: MCF-7 cells at a density of 5 × 10^5 cells/well were seeded in 6-well plates and incubated at 37 °C in a humidified 5% CO2 incubator for 24 h. Exponentially growing cells were treated with compound 11/12a (0, 5, 10, and 20 μM) for 72 h. Then, the cells were harvested and fixed with 70% precooled ethanol at 4 °C for 12 h. Later, the cells were centrifuged and washed with cold PBS. 100 μL of RNase A was added, and then bathed in water for 30 min at 37 °C. Subsequently, cells were stained by 400 μL of propidium iodide (PI) for 30 min at 4 °C in the dark. Finally, cellular DNA was measured using a flow cytometry (FACS Calibur Becton-Dickinson, San Jose, California, USA).

MCF-7 cells [2] = experiment: Cell apoptosis analysis (Annexin V-APC/7-AAD double staining); assay type: cell-based, human; conditions: 72 h
Experimental: MCF-7 cells at a density of 2 × 10^5 cells/well were seeded on each well of 6-well plates and allowed to grow overnight. Then the cells were treated with compound 11/12a (5, 10, and 20 μM) for 72 h, while cells without treatment were used as control group. The treated cells were trypsinized and washed with cold PBS twice, then centrifuged at 2000 rpm for 5 min and resuspended in 500 μL annexin V binding buffer. 5 μL of Annexin V- allophycocyanin (APC) was added, and the mixture was incubated in the dark at 25 °C for 15 min. Then, 5 μL of 7-AAD was added just prior to acquisition. Apoptosis was analyzed by Annexin V-APC and 7-AAD double staining by flow cytometry (FACS Calibur Becton-Dickinson, San Jose, Califormia, USA).

[3] = target: T1, estradiol receptor alpha (ERα) (Homo sapiens, UniProt P03372); experiment: Immunohistochemical (IHC) analysis of ERα; assay type: cell-based; conditions: 5, 10, and 20 μM, MCF-7 cells, dose-dependent
T1 construct: endogenous in cells; host or cells: MCF-7
T1 sequence (P03372 1-595): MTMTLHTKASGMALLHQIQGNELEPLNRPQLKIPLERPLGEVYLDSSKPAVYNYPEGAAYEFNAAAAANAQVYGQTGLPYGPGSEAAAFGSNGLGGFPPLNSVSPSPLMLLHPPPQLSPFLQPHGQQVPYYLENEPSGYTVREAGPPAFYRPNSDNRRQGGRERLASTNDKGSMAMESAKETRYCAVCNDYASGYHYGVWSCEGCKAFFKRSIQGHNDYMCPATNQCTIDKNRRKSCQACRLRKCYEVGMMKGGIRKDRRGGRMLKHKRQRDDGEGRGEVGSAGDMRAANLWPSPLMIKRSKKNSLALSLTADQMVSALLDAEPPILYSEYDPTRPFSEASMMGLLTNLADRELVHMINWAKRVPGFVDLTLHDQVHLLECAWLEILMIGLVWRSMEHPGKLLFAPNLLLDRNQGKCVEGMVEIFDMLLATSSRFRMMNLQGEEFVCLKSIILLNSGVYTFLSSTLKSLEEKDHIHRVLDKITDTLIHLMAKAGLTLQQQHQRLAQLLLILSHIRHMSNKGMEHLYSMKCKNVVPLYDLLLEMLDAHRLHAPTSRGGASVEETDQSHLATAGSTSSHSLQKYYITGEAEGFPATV
Experimental: MCF-7 cells were seeded in culture plates and treated with compound 11/12a (0, 5, 10, and 20 μM) for 72 h. Cells were collected and mounted on a slide, fixed for 30 min with 4% paraformaldehyde, and washed three times with PBS. 1% Triton X-100 was added to each cell sample, and it was permeabilized at room temperature for 10 min, then washed three times with PBS. Two drops of 3% H2O2-methanol solution were added to each cell section. After being blocked at room temperature for 10 min, the section was washed three times with PBS. Then, 50–100 μL of ready-to-use goat serum was added and cells were incubated for 20 min at room temperature. Before the cell section was incubated at 37 °C for 2 h in a wet box, 50–100 μL of a primary antibody (1:200 dilution) against estradiol receptor alpha (ERα) (Bs-1427R, Bioss Co. Ltd., Beijing, China) was added, and then washed three times with PBS. Subsequently, 50 μL of enhancer was added and cells were incubated for 30 min at room temperature, then washed three times with PBS. Fifty microliters of a universal IgG antibody-Fab fragment-HRP multimer was added dropwise, and the mixture was incubated at 37 °C for 30 min, then soaked and washed three times with PBS. After 2 drops of freshly prepared DAB (DAB-1031, MaXi Biotech Co. Ltd., FuZhou, China) solution were added to each cell section, the dyeing depth was observed under the microscope. […]

MCF-7 cells [4] = experiment: Hoechst 33258 staining; assay type: cell-based, human; conditions: 0, 5, 10, and 20 μM, 72 h; at higher concentrations
Experimental: The nuclear morphological changes and apoptotic effects induced by compound 11/12a were detected using Hoechst 33,258 staining. Cells grown on a sterile cover slip were treated with 11/12a for 72 h in six-well tissue culture plates. Cells were collected and mounted on a slide, fixed for 30 min with 4% paraformaldehyde, and washed three times with PBS. Then, cells were stained with Hoechst 33,258 (2 mg/mL in PBS) for 10 min at room temperature in the dark. The cells were subsequently washed three times with PBS and observed with a fluorescence microscope.

Compound	cells at the G2 phase (MCF-7 cells [1]; 5 μM) [%]	cells at the G2 phase (MCF-7 cells [1]; 10 μM) [%]	cells at the G1 phase (MCF-7 cells [1]; 20 μM) [%]	cells at the G2 phase (MCF-7 cells [1]; 20 μM) [%]	total early and late apoptotic cells (MCF-7 cells [2]; 5 μM) [%]	total early and late apoptotic cells (MCF-7 cells [2]; 10 μM) [%]	total early and late apoptotic cells (MCF-7 cells [2]; 20 μM) [%]	interaction with ERα (nuclear colour, IOD value) [3]	Hoechst 33258 fluorescence / cell morphology (MCF-7 cells [4])
17 β-[6-(Uracil-3-yl)-Hexyloxy]-2-Methoxy-Estra-1,3,5(10)-Triene-3-ol [Compound 12a]	7.97	13.93	54.41	22.46	12.1	30.86	67.28	specific binding	stronger blue fluorescence
COc1cc2c(cc1O)CC[C@@H]1[C@@H]2CC[C@]2(C)[C@@H](OCCCCCCCCn3c(=O)ccn([C@@H]4O[C@H](CO)[C@@H](O)[C@H]4O)c3=O)CC[C@@H]12 [Compound 11, 17 β-[8-(1-β-D-Ribofuranosyluracil-3-yl)-Octyloxy]-2-Methoxy-Estra-1,3,5(10)-Triene-3-ol]	8.32	15.48	42.84	24.11	13.21	33.24	67.74	specific binding	stronger blue fluorescence
